Data from US6531148B1, “Therapeutic agents” (Takara Shuzo Co., Ltd., priority 1998, dated 2003).
Entries after “also recorded” stand apart in the source; their conditions may differ.

Columns and labels:
[1] = tested on: NO production induced by LPS and IFN-γ in RAW264.7 cells; test: NO production inhibition test; assay type: cell-based; details: for inhibition of NO production induced by LPS and IFN-γ: NO2− in the medium, Griess' reagent
Protocol: (1) RAW264.7 cells (ATCC TIB 71) were suspended in Dulbecco's modified Eagle's medium (Bio Whittaker, 12-917F) without phenol red containing 10% fetal bovine serum (Gibco) and 2 mM L-glutamine (Life Technologies Oriental, 25030-149) at a concentration of 3×10^5 cells/ml. 500 μl of the suspension was added to each well of a 48-well microtiter plate and the plate was incubated at 37° C. for 12 hours in the presence of 5% CO2. 10 μl of an aqueous solution containing 25 μg/ml lipopolysaccharide (LPS, Sigma, L-2012) and 500 U/ml interferon-γ (IFN-γ, sold by Cosmobio, GZM-MG-IFN), and 10 μl of the aqueous DGE solution at 250 or 500 μM were added to the well. The plate was incubated for additional 12 hours. The concentration of NO2^− produced by oxidation of NO in the medium was then measured. As control groups, a group to which LPS or IFN-γ was not added and a group to which DGE was not added were provided.
(§1) After cultivation, 100 μl of 4% Griess' reagent (Sigma, G4410) was added to 100 μl of the medium, and the mixture was allowed to stand for 15 minutes at room temperature. The absorbance at 490 nm was then measured. NO2^− concentration in the medium was calculated with reference to a calibration curve prepared by using NaNO2 at a given concentration dissolved in the same medium as that described above. All of the measurements were carried out in triplicate.
(2) RAW264.7 cells were suspended in Dulbecco's modified Eagle's medium without phenol red containing 10% fetal bovine serum and 2 mM L-glutamine at a concentration of 3×10^5 cells/ml. 500 μl of the suspension was placed in each well of a 48-well microtiter plate. […] The concentration of NO2^− produced by oxidation of NO in the medium was measured. […]
as §1, with “reagent” for “reagent (Sigma, G4410)”, “culture supernatant,” for “medium,”, “above.” for “above. All of the measurements were carried out in triplicate.”
RAW264.7 cells were suspended in Dulbecco's modified Eagle's medium without phenol red containing 10% fetal bovine serum and 2 mM L-glutamine at a concentration of 3×10^5 cells/ml. […] The concentration of NO2^− produced by oxidation of NO in the medium was then measured. […]
as §1, with “above.” for “above. All of the measurements were carried out in triplicate.”

Bacteria 1 to 5 = test: Antimicrobial activity test (overall statement); assay type: cell-based
Protocol: The antimicrobial activities of DGE against Escherichia coli W3110 (Bacterium 1), Salmonella typhimurium LT2 (Bacterium 2), Bacillus subtilis IFO3021 (Bacterium 3), Pseudomonas aeruginosa IFO3080 (Bacterium 4) and Streptococcus mutans GS5 (Bacterium 5) were examined as follows.
The Bacteria 1 to 4 were cultured overnight in L-broth. The cultures were diluted to a concentration of about 2×10^5 cells/180 μl with Sensitive Bouillon medium (Nissui) base on the turbidity. The Bacterium 5 was cultured overnight in Brain Heart Infusion medium. The culture was diluted to a concentration of about 2×10^5 cells/180 μl with Brain Heart Infusion medium based on the turbidity. 180 μl of each bacterial dilution was placed in each well of a 96-well microtiter plate. On the other hand, the respective bacterial dilutions were further diluted and spread onto plates of L-broth or Brain Heart Infusion medium. The plates were incubated at 37° C. overnight. The resulting colonies were counted to determine the stating viable cell numbers.
A 14.4 mg/ml DGE solution was diluted every 2-folds to prepare serial dilutions. 20 μl each of the dilutions was placed in the well in which the bacterial dilution had been placed. The cells were cultured at 37° C. for 24 hours without shaking. After cultivation, the turbidity of each culture was measured.
Furthermore, the culture from the well for which the growth of bacterial cells was not observed was spread onto plates. After the plates were incubated at 37° C. overnight, the colony number was counted to determine the viable cell number. […] The minimal growth-inhibitory concentrations and the minimal bacteriocidal concentrations of DGE for the Bacteria 1 to 5 were determined as shown in Table 2.

[2] = tested on: Ehrlich's carcinoma cells; test: Carcinostatic activity test, Ehrlich's carcinoma; assay type: in vivo, mice; details: for 30-day survival number: 6 mice per group, control 0; for Average days of survival: 30 days observation, control 14.3; for carcinostatic activity: mouse, in vivo
Protocol: (2) Ehrlich's carcinoma cells were administered to 18 female ddY mice (5 weeks old, weighing about 25 g) intraperitoneally (1.2×10^6 cells/mouse). Observation was continued for 30 days. The average days of survival, the prolongation rate and the 30-day survival number were then calculated. Mice were divided into 3 group each consisting of 6 mice. One was a control group, and other two groups received DGE at 2 mg/kg and 20 mg/kg, respectively. DGE was intraperitoneally administered for 4 days from the day after the administration of cancer.

[3] = DGE at 2 mg/kg intraperitoneally for 4 days
[4] = DGE at 20 mg/kg intraperitoneally for 4 days

Q: O=C1C=CC(CO)OC1O [DGE, L-glycero-1,5-epoxy-1αβ,6-dihydroxy-cis-hex-3-en-2-one] was tested. Which “inhibition of NO production, 5 hours pre-culture with DGE compared with 0.5 hour” value ([1]; DGE added before LPS and IFN-γ) did it give?
A: The value was “stronger inhibition of NO production”.

Q: What about the “inhibition of NO production induced by LPS and IFN-γ” value [1] of the same compound?
A: The value was “dose-dependently inhibited NO production; also recorded: exhibited an activity of inhibiting NO production”.

Q: And the antimicrobial activity (Bacteria 1 to 5)?
A: The antimicrobial activity was “exhibited an antimicrobial activity”.

Q: What about the 30-day survival number [2, 3] of the same compound?
A: Its 30-day survival number is 1.

Q: What about the “Average days of survival” value [2, 3] of the same compound?
A: Its value is 23.7 days.

Q: What about the 30-day survival number [2, 4] of the same compound?
A: Its 30-day survival number is 3.

Q: What about the “Average days of survival” value [2, 4] of the same compound?
A: The value was 28.0 days.

Q: What about the carcinostatic activity [2] of the same compound?
A: Its carcinostatic activity is “exhibited a carcinostatic activity”.

Q: What does the source list for O=C1C=CC(CO)OC1O [κ-DGE, D-glycero-1,5-epoxy-1αβ,6-dihydroxy-cis-hex-3-en-2-one]?
A: inhibition of NO production induced by LPS and IFN-γ [1]: exhibited a similar activity; antimicrobial activity (Bacteria 1 to 5): also exhibited similar activities; carcinostatic activity [2]: also exhibited similar activities

Q: With “5-L-glutathion-S-yl-2-hydroxy-3,7-dioxabicyclo[2.2.2]octan-1-ol [DGE-GSH]” as the compound, how does the “NO2− concentration in the medium” value ([1]; LPS and IFN-γ, 10 μl of 1 mM DGE-GSH per 500 μl well, 16 hours, control 12.1 μM, no addition 4.6 μM) read?
A: The value was 9.4 µM.

Q: And the antimicrobial activity (Bacteria 1 to 5)?
A: The antimicrobial activity was “also exhibited similar activities”.

Q: And the carcinostatic activity [2]?
A: Its carcinostatic activity is “also exhibited similar activities”.
